{"source": "patent US7851467B2", "about": "“Carbamate compounds as 5-HT4 receptor agonists” (Theravance, Inc., priority 2005, dated 2010)", "key": {"[1]": {"target": "T1, human 5-HT3A receptor (Homo sapiens, UniProt P46098)", "T1 construct": "host or cells: HEK-293", "T1 sequence (P46098 24-478)": "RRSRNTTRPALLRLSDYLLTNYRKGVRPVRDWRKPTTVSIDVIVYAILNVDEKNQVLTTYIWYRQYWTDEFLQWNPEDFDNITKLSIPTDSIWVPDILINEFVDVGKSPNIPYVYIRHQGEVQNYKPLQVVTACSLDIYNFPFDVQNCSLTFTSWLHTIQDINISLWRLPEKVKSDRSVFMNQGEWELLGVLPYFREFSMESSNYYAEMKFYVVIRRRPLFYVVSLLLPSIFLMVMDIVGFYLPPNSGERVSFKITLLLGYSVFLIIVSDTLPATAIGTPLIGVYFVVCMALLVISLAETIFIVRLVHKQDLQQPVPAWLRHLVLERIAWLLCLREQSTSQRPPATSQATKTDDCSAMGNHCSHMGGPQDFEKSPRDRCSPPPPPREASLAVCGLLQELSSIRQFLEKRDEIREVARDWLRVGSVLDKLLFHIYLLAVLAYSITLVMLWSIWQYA", "test": "Radioligand binding assay on 5-HT3A human receptors: determination of receptor subtype selectivity", "conditions": "[3H]-GR65630 at 0.50 nM for 5-HT3A", "description": "Assay 2: Radioligand Binding Assay on 5-HT3A Human Receptors: Determination of Receptor Subtype Selectivity\na. Membrane Preparation 5-HT3A\nHEK-293 (human embryonic kidney) cells stably-transfected with human 5-HT3A receptor cDNA were obtained from Dr. Michael Bruess (University of Bonn, […]) (Bmax=˜[…] protein, as determined using [^3H]-GR65630 membrane radioligand binding assay). […]\nRadioligand binding assays were performed in 96-well polypropylene assay plates in a total assay volume of 200 μL containing 1.5-2 μg membrane protein in 50 mM HEPES pH 7.4, containing 0.025% BSA assay buffer. […] Non-specific binding was determined in the presence of 10 μM unlabeled MDL72222. […] Filter plates were washed three times with filtration buffer (ice-cold 50 mM HEPES, pH7.4) to remove unbound radioactivity. Plates were dried, 35 μL Microscint-20 liquid scintillation fluid (Packard BioScience Co., Meriden, Conn.) was added to each well and plates were counted in a Packard Topcount liquid scintillation counter (Packard BioScience Co., Meriden, Conn.).\nBinding data were analyzed using the non-linear regression procedure described above to determine Ki values. The BOTTOM (curve minimum) was fixed to the value for nonspecific binding, as determined in the presence of 10 μM MDL72222. The quantity [L] in the Cheng-Prusoff equation was defined as the concentration [^3H]-GR65630. […]"}, "[2]": {"tested_on": "Caco-2 (colon, adenocarcinoma; human) cell monolayer", "test": "Caco-2 permeation assay (in vitro model of oral bioavailability)", "format": "in vitro ADME", "conditions": "100 μM test compound, 37° C., 60 min", "description": "Assay 5: In Vitro Model of Oral Bioavailability: Caco-2 Permeation Assay\nThe Caco-2 permeation assay was performed to model the ability of test compounds to pass through the intestine and get into the blood stream after oral administration. The rate at which test compounds in solution permeate a cell monolayer designed to mimic the tight junction of human small intestinal monolayers was determined.\nCaco-2 (colon, adenocarcinoma; human) cells were obtained from ATCC (American Type Culture Collection; Rockville, Md.). For the permeation study, cells were seeded at a density of 63,000 cells/cm^2 on pre-wetted transwells polycarbonate filters (Costar; Cambridge, Mass.). A cell monolayer was formed after 21 days in culture. Following cell culture in the transwell plate, the membrane containing the cell monolayer was detached from the transwell plate and inserted into the diffusion chamber (Costar; Cambridge, Mass.). The diffusion chamber was inserted into the heating block which was equipped with circulating external, thermostatically regulated 37° C. water for temperature control. […]\nThe permeation study was performed with test compound concentrations at 100 μM and with ^14C-mannitol to monitor the integrity of the monolayer. […] Samples were analyzed by HPLC or liquid scintillation counting for test compound and mannitol concentrations. The permeation coefficient (Kp) in cm/sec was calculated. […]"}}, "data": [{"molecule": "CC(C)n1c(=O)n(C(=O)N[C@H]2C[C@H]3CC[C@@H](C2)N3CCCOC(=O)N2CCN(C(=O)C3CCCO3)CC2)c2ccccc21", "note": "(stereo partly drawn) [Example 1, 4-(tetrahydrofuran-2-carbonyl)piperazine-1-carboxylic acid 3-{(1S,3R,5R)-3-[(3-isopropyl-2-oxo-2,3-dihydrobenzoimidazole-1-carbonyl)amino]-8-aza-bicyclo[3.2.1]oct-8-yl}propyl ester]", "values": [{"measurement": "5-HT4/5-HT3 receptor subtype selectivity, ratio Ki(5-HT3A)/Ki(5-HT4(c))", "setting": "[1]", "result": 160}, {"measurement": "Kp value (permeation coefficient)", "setting": "[2]", "result": 60, "unit": "×10⁻⁶ cm/s"}]}]}
